PubChem BioAssay (NCI)
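A five-concentration, 48-hour dose response in 96-well plates underlies each endpoint, interpolated linearly between surrounding concentrations. The concentration for full growth arrest is given as TGI.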

Columns and labels:
Test in all cases: NCI tumour cell line growth inhibition, 48 h
MALME-3M melanoma = test system: MALME-3M melanoma
UACC-257 melanoma = test system: UACC-257 melanoma
HOP-92 NSCLC = test system: HOP-92 NSCLC
OVCAR-8 ovarian = test system: OVCAR-8 ovarian
LXFL 529 NSCLC = test system: LXFL 529 NSCLC
EKVX NSCLC = test system: EKVX NSCLC
SK-OV-3 ovarian = test system: SK-OV-3 ovarian
A498 renal = test system: A498 renal
DMS 273 small cell lung = test system: DMS 273 small cell lung
RPMI-8226 leukemia = test system: RPMI-8226 leukemia
SR leukemia = test system: SR leukemia
SF-268 CNS = test system: SF-268 CNS
COLO 205 colon = test system: COLO 205 colon
XF 498 CNS = test system: XF 498 CNS
HCT-15 colon = test system: HCT-15 colon
TK-10 renal = test system: TK-10 renal
NCI-H522 lung = test system: NCI-H522 lung
OVCAR-4 ovarian = test system: OVCAR-4 ovarian
IGROV1 ovarian = test system: IGROV1 ovarian
HOP-18 NSCLC = test system: HOP-18 NSCLC
SW-620 colon = test system: SW-620 colon
UACC-62 melanoma = test system: UACC-62 melanoma
M14 melanoma = test system: M14 melanoma
K-562 leukemia = test system: K-562 leukemia
UO-31 renal = test system: UO-31 renal
A549 NSCLC = test system: A549 NSCLC
SNB-19 CNS = test system: SNB-19 CNS
NCI-H226 lung = test system: NCI-H226 lung
OVCAR-3 ovarian = test system: OVCAR-3 ovarian
MOLT-4 leukemia = test system: MOLT-4 leukemia
HT29 colon = test system: HT29 colon
OVCAR-5 ovarian = test system: OVCAR-5 ovarian
KM12 colon = test system: KM12 colon
SK-MEL-28 melanoma = test system: SK-MEL-28 melanoma
RXF-631 renal = test system: RXF-631 renal
NCI-H23 lung = test system: NCI-H23 lung
HCT-116 colon = test system: HCT-116 colon
KM20L2 colon = test system: KM20L2 colon
SNB-78 CNS = test system: SNB-78 CNS
SK-MEL-5 melanoma = test system: SK-MEL-5 melanoma
M19-MEL melanoma = test system: M19-MEL melanoma
LOX IMVI melanoma = test system: LOX IMVI melanoma
HL-60(TB) leukemia = test system: HL-60(TB) leukemia
HOP-62 NSCLC = test system: HOP-62 NSCLC
DMS 114 small cell lung = test system: DMS 114 small cell lung
HCC-2998 colon = test system: HCC-2998 colon
SN12C renal = test system: SN12C renal
SF-295 CNS = test system: SF-295 CNS
SK-MEL-2 melanoma = test system: SK-MEL-2 melanoma
DLD-1 colon = test system: DLD-1 colon
CCRF-CEM leukemia = test system: CCRF-CEM leukemia
SNB-75 CNS = test system: SNB-75 CNS
NCI-H460 lung = test system: NCI-H460 lung
786-0 renal = test system: 786-0 renal
U251 CNS = test system: U251 CNS
RXF 393 renal = test system: RXF 393 renal
SF-539 CNS = test system: SF-539 CNS
ACHN renal = test system: ACHN renal
CAKI-1 renal = test system: CAKI-1 renal

COc1ccccc1C(O)(c1ccccc1)C(O)(c1ccccc1)c1ccccc1OC (centres undefined)
TGI (MALME-3M melanoma): > 100 µM
TGI (UACC-257 melanoma): > 100 µM
TGI (HOP-92 NSCLC): > 100 µM
TGI (OVCAR-8 ovarian): > 100 µM
TGI (LXFL 529 NSCLC): > 100 µM
TGI (EKVX NSCLC): > 100 µM
TGI (SK-OV-3 ovarian): > 31.6 µM
TGI (A498 renal): > 100 µM
TGI (DMS 273 small cell lung): > 100 µM
TGI (RPMI-8226 leukemia): > 100 µM
TGI (SR leukemia): > 100 µM
TGI (SF-268 CNS): > 100 µM
TGI (COLO 205 colon): > 100 µM
TGI (XF 498 CNS): > 100 µM
TGI (HCT-15 colon): > 100 µM
TGI (TK-10 renal): > 100 µM
TGI (NCI-H522 lung): > 100 µM
TGI (OVCAR-4 ovarian): > 100 µM
TGI (IGROV1 ovarian): > 100 µM
TGI (HOP-18 NSCLC): > 100 µM
TGI (SW-620 colon): > 100 µM
TGI (UACC-62 melanoma): > 100 µM
TGI (M14 melanoma): > 100 µM
TGI (K-562 leukemia): > 100 µM
TGI (UO-31 renal): > 100 µM
TGI (A549 NSCLC): > 100 µM
TGI (SNB-19 CNS): > 100 µM
TGI (NCI-H226 lung): > 100 µM
TGI (OVCAR-3 ovarian): > 100 µM
TGI (MOLT-4 leukemia): > 100 µM
TGI (HT29 colon): > 100 µM
TGI (OVCAR-5 ovarian): > 100 µM
TGI (KM12 colon): > 100 µM
TGI (SK-MEL-28 melanoma): > 100 µM
TGI (RXF-631 renal): > 100 µM
TGI (NCI-H23 lung): > 100 µM
TGI (HCT-116 colon): > 100 µM
TGI (KM20L2 colon): > 100 µM
TGI (SNB-78 CNS): > 100 µM
TGI (SK-MEL-5 melanoma): > 100 µM
TGI (M19-MEL melanoma): > 100 µM
TGI (LOX IMVI melanoma): > 100 µM
TGI (HL-60(TB) leukemia): > 100 µM
TGI (HOP-62 NSCLC): > 100 µM
TGI (DMS 114 small cell lung): > 100 µM
TGI (HCC-2998 colon): > 100 µM
TGI (SN12C renal): > 100 µM
TGI (SF-295 CNS): > 100 µM
TGI (SK-MEL-2 melanoma): > 100 µM
TGI (DLD-1 colon): > 100 µM
TGI (CCRF-CEM leukemia): > 100 µM
TGI (SNB-75 CNS): > 100 µM
TGI (NCI-H460 lung): > 100 µM
TGI (786-0 renal): > 100 µM
TGI (U251 CNS): > 100 µM
TGI (RXF 393 renal): > 100 µM
TGI (SF-539 CNS): > 100 µM
TGI (ACHN renal): > 100 µM

C[C@]12CCC(=O)C(O)=C1CC[C@@H]1C2CC[C@]2(C)NC(=O)CCC12 (some centres undefined)
TGI (MALME-3M melanoma): > 100 µM
TGI (UACC-257 melanoma): > 100 µM
TGI (HOP-92 NSCLC): > 100 µM
TGI (OVCAR-8 ovarian): > 100 µM
TGI (LXFL 529 NSCLC): > 100 µM
TGI (EKVX NSCLC): > 100 µM
TGI (SK-OV-3 ovarian): > 100 µM
TGI (A498 renal): > 100 µM
TGI (DMS 273 small cell lung): > 100 µM
TGI (RPMI-8226 leukemia): > 100 µM
TGI (SF-268 CNS): > 100 µM
TGI (COLO 205 colon): > 100 µM
TGI (XF 498 CNS): > 100 µM
TGI (HCT-15 colon): > 100 µM
TGI (TK-10 renal): > 100 µM
TGI (NCI-H522 lung): > 100 µM
TGI (OVCAR-4 ovarian): > 100 µM
TGI (IGROV1 ovarian): > 100 µM
TGI (HOP-18 NSCLC): > 100 µM
TGI (SW-620 colon): > 100 µM
TGI (UACC-62 melanoma): > 100 µM
TGI (M14 melanoma): > 100 µM
TGI (K-562 leukemia): > 100 µM
TGI (UO-31 renal): > 100 µM
TGI (A549 NSCLC): > 100 µM
TGI (SNB-19 CNS): > 100 µM
TGI (NCI-H226 lung): > 100 µM
TGI (OVCAR-3 ovarian): > 100 µM
TGI (MOLT-4 leukemia): > 100 µM
TGI (HT29 colon): > 100 µM
TGI (OVCAR-5 ovarian): > 100 µM
TGI (KM12 colon): > 100 µM
TGI (SK-MEL-28 melanoma): > 100 µM
TGI (RXF-631 renal): > 100 µM
TGI (NCI-H23 lung): > 100 µM
TGI (HCT-116 colon): > 100 µM
TGI (KM20L2 colon): > 100 µM
TGI (SNB-78 CNS): > 100 µM
TGI (CAKI-1 renal): > 100 µM
TGI (SK-MEL-5 melanoma): > 100 µM
TGI (M19-MEL melanoma): > 100 µM
TGI (LOX IMVI melanoma): > 100 µM
TGI (HL-60(TB) leukemia): > 100 µM
TGI (HOP-62 NSCLC): > 100 µM
TGI (DMS 114 small cell lung): > 100 µM
TGI (SN12C renal): > 100 µM
TGI (SF-295 CNS): > 100 µM
TGI (SK-MEL-2 melanoma): > 100 µM
TGI (CCRF-CEM leukemia): > 100 µM
TGI (SNB-75 CNS): > 100 µM
TGI (NCI-H460 lung): > 100 µM
TGI (786-0 renal): > 100 µM
TGI (U251 CNS): > 100 µM
TGI (RXF 393 renal): > 100 µM
TGI (SF-539 CNS): > 100 µM
TGI (ACHN renal): > 100 µM
